Results reported in USRE47739E1, “2-(pyridin-2-ylamino)-pyrido[2,3-D]pyrimidin-7-ones” (Warner-Lambert Company LLC, priority 2002, dated 2019).
Where a name gives a salt, the structure may show the parent alone.

How the values were obtained:
[1] = biological target: FGF receptor (FGFr) tyrosine kinase (Homo sapiens, UniProt P11362); assay: Assay for Inhibition of FGFr; format: biochemical; conditions: 50 μM ATP, Poly (4:1) glutamate-tyrosine substrate, 25° C.
Procedure: (§1) The assays were carried out as described below.
Assay for Inhibition of FGFr
For FGF receptor (FGFr) tyrosine kinase assays 96-well plates (100 μL/incubation/well), and conditions are optimized to measure the incorporation of ^32P from [γ^32P]ATP into a glutamate-tyrosine co-polymer substrate. Briefly, to each well is added 82.5 μL incubation buffer B (25 mM Hepes (pH 7.0), 150 mM NaCl, 0.1% Triton X-100, 0.2 mM PMSF, 0.2 mM Na3VO4, 10 mM MnCl2) and 750 μg/mL Poly (4:1) glutamate-tyrosine followed by 2.5 μL of the test compound in buffer B and 5 μL of a 7.5 μg/μL FGFr solution to initiate the reaction. Following a 10-minute incubation at 25° C., […] [γ^32P]ATP (0.4 μCi plus 50 μM ATP) is added to each well, and samples are incubated for an additional 10 minutes at 25° C. The reaction is terminated by the addition of 100 μL 30% trichloroacetic acid (TCA) containing 20 mM sodium pyrophosphate and precipitation of material onto glass fiber mats (Wallac). […] Nonspecific activity is defined as radioactivity retained on the filters following incubation of samples with buffer alone (no enzyme). Specific enzymatic activity (enzyme plus buffer) is defined as total activity minus nonspecific activity.

[2] = biological target: Cdk4/Cyclin D (Homo sapiens, UniProt P11802); assay: Assay for Inhibition of Cdk4/Cyclin D; format: biochemical; conditions: 25 μM ATP, retinoblastoma protein substrate, 25° C., 15 minutes
Chain of Cdk4/Cyclin D (P11802 whole entry, species assumed): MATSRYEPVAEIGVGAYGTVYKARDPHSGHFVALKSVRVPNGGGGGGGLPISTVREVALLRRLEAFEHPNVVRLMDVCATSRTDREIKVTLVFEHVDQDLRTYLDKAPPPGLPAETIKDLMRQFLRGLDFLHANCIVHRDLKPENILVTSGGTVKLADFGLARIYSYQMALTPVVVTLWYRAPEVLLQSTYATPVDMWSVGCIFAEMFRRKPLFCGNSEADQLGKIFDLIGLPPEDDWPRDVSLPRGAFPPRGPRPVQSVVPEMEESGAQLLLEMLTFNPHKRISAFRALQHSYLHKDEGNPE
Chain of Cdk4/Cyclin D (P24385 whole entry partner, species assumed): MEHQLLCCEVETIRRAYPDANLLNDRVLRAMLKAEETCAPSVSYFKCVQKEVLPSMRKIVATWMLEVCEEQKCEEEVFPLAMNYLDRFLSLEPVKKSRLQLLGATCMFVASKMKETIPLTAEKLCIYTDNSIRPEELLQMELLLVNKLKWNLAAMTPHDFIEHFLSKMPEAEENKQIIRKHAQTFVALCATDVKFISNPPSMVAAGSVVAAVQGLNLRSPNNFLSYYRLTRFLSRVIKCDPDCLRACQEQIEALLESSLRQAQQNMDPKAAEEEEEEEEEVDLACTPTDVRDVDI
Procedure: as §1
Assay for Inhibition of Cdk4/Cyclin D
The Cdk4 enzyme assay for IC50 determination and kinetic evaluation is performed as follows. 96-well filter plates (Millipore MADVN6550) are used. […] Buffer A containing excess EDTA was used to determine the level of background ^32P in the absence of enzyme activity. All components except the ATP are added to the wells, and the plate is placed on a plate mixer for 2 minutes. The reaction is started by adding [^32P]ATP, and the plate is incubated at 25° C. for 15 minutes. The reaction is terminated by addition of 0.1 mL 20% trichloroacetic acid (TCA). The plate is kept at 4° C. for at least 1 hour to allow the substrate to precipitate. The wells are then washed five times with 0.2 mL 10% TCA, and ^32P incorporation is determined with a beta plate counter (Wallac Inc., Gaithersburg, Md.).

[3] = biological target: Cdk2/Cyclin A (Homo sapiens, UniProt P24941); assay: Assay for Inhibition of Cdk2/Cyclin A; format: biochemical; conditions: 12 mM ATP (so in the source), retinoblastoma protein substrate, 25° C., 15 minutes
Procedure: as §1
Assay for Inhibition of Cdk2/Cyclin A
Cdk2 enzyme assays for IC50 determinations and kinetic evaluation are performed as follows. 96-well filter plates (Millipore MADVN6550) are used. […] All components except the ATP are added to the wells, and the plate is placed on a plate mixer for 2 minutes. The reaction is initiated by addition of [^32P]ATP, and the plate is incubated at 25° C. for 15 minutes. The reaction is terminated by addition of 0.1 mL 20% TCA. The plate is kept at 4° C. for at least 1 hour to allow the substrate to precipitate. The wells are then washed five times with 0.2 mL 10% TCA, and ^32P incorporation is determined with a beta plate counter (Wallac Inc., Gaithersburg, Md.).

Chain of FGF receptor (FGFr) tyrosine kinase (P11362 22-822): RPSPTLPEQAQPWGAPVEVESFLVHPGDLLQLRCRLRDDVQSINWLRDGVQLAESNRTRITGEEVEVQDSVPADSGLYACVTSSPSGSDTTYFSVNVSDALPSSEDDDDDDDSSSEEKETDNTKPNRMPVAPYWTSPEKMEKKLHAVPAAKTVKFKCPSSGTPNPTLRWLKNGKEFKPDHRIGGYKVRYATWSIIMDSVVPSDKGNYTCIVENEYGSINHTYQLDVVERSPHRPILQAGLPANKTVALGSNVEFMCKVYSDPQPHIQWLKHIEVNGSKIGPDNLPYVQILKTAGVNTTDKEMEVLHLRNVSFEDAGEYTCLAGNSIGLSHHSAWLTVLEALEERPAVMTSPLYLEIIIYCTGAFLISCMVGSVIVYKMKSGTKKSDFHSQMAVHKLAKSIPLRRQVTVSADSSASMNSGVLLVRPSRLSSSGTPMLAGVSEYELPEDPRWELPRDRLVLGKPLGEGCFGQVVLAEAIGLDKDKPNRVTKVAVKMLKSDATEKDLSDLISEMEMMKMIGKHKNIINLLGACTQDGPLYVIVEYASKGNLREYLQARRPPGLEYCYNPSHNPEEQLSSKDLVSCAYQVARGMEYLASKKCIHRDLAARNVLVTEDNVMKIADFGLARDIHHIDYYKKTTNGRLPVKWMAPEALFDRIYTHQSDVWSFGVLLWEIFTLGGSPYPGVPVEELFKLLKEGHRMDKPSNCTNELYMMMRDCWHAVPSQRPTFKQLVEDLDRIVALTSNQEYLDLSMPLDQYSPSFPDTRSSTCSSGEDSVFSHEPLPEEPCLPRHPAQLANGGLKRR

Compound	melting point	IC50 [1]	IC50 [2]	IC50 [3]
Cc1c(Br)c(=O)n(C2CCCC2)c2nc(Nc3ccccn3)ncc12 [Example 37, 6-bromo-8-cyclopentyl-5-methyl-2-(pyridin-2-ylamino)-8H-pyrido[2,3-d]pyrimidin-7-one]	267 to 268 °C	> 5000 nM	> 5000 nM	
Cc1c(I)c(=O)n(C2CCCC2)c2nc(Nc3ccc(N4CCNCC4)cn3)ncc12 [Example 50, 8-Cyclopentyl-6-iodo-5-methyl-2-(5-piperazin-1-yl-pyridin-2-ylamino)-8H-pyrido[2,3-d]pyrimidin-7-one]	> 240 °C	> 5000 nM	145 nM	> 5000 nM
8-Cyclopentyl-6-methoxymethyl-2-(5-piperazin-1-yl-pyridin-2-ylamino)-8H-pyrido[2,3-d]pyrimidin-7-one [Example 120]		2470 nM	13 nM	3800 nM
CC(=O)c1cc2cnc(Nc3ccc(N4CCNCC4)cn3)nc2n(C2CCCC2)c1=O (as salt: hydrochloride) [Example 33, 6-Acetyl-8-cyclopentyl-2-(5-piperazin-1-yl-pyridin-2-ylamino)-8H-pyrido[2.3-d]pyrimidin-7-one hydrochloride]	> 300 °C			
Cc1cc2cnc(Nc3ccc(N4CCNCC4)cn3)nc2n(C2CCCC2)c1=O [Example 20, 8-Cyclopentyl-6-methyl-2-(5-piperazin-1-yl-pyridin-2-ylamino)-8H-pyrido[2,3-d]pyrimidin-7-one hydrochloride]		1600 nM	27 nM	4050 nM
O=c1ccc2cnc(Nc3ccccc3)nc2n1C1CCCC1 [1′, reference compound]				21 nM
O=c1c(Cc2ccccc2)cc2cnc(Nc3ccc(N4CCNCC4)cn3)nc2n1C1CCCC1 [Example 24, 6-Benzyl-8-cyclopentyl-2-(5-piperazin-1-yl-pyridin-2-ylamino)-8H-pyrido[2,3-d]pyrimidin-7-one hydrochloride]		> 5000 nM	5 nM	> 5000 nM
CCc1cc2cnc(Nc3ccc(N4CCC(O)CC4)cn3)nc2n(C2CCCC2)c1=O [Example 51, 8-Cyclopentyl-6-ethyl-2-(4-hydroxy-3,4,5,6-tetrahydro-2H-[1,3′]bipyridinyl-6′-ylamino)-8H-pyrido [2,3-d]pyrimidin-7-one]			135 nM	> 5000 nM
O=c1ccc2cnc(Nc3ccccn3)nc2n1C1CCCC1 [Example 1, 8-Cyclopentyl-2-(pyridin-2-ylamino)-8H-pyrido[2,3-d]pyrimidin-7-one]		> 5000 nM	145 nM	5010 nM
CC(=O)c1cc2cnc(Nc3ccc(N4CCNCC4)cn3)nc2n(C2CCCC2)c1=O [Example 33, 6-Acetyl-8-cyclopentyl-2-(5-piperazin-1-yl-pyridin-2-ylamino)-8H-pyrido[2.3-d]pyrimidin-7-one hydrochloride]		> 5000 nM	123 nM	
Nc1cc2cnc(Nc3ccc(N4CCNCC4)cn3)nc2n(C2CCCC2)c1=O [Example 11, 6-Amino-8-cyclopentyl-2-(5-piperazin-1-yl-pyridin-2-ylamino)-8H-pyrido[2,3-d]pyrimidin-7-one hydrochloride]		2120 nM	12 nM	
O=c1c(Br)cc2cnc(Nc3ccc(N4CCNCC4)cn3)nc2n1C1CCCC1 [Example 3, 6-Bromo-8-cyclopentyl-2-(5-piperazin-1-yl-pyridin-2-ylamino)-8H-pyrido [2,3-d]pyrimidin-7-one hydrochloride]		1030 nM	16 nM	6050 nM

Now from value to compound:

melting point	IC50 [1]	IC50 [2]	IC50 [3]	Compound
> 300 °C		430 nM	3300 nM	Nc1cccc(Nc2ncc3cc(Br)c(=O)n(C4CCCC4)c3n2)n1 [Example 65, 6-Bromo-8-cyclopentyl-2-(pyridin-2,6-yldiamino)-8H-pyrido[2,3-d]pyrimidin-7-one]
94 to 95 °C	> 5000 nM	1100 nM		COCCN(CCOC)c1ccc(Nc2ncc3c(C)c(Br)c(=O)n(C4CCCC4)c3n2)nc1 [Example 54, 2-{5-[Bis-(2-methoxy-ethyl)-amino]-pyridin-2-ylamino}-6-bromo-8-cyclopentyl-5-methyl-8H-pyrido[2,3-d]pyrimidin-7-one]
228 to 230 °C				O=c1ccc2cnc(Nc3ccc(N4CCNCC4)cn3)nc2n1C1CCCCC1 (as salt: hydrochloride) [Example 61, 8-cyclohexyl-2-(5-piperazin-1-yl-pyridin-2-ylamino)-8H-pyrido[2,3-d]pyrimidin-7-one]
	1520 nM	15 nM	2500 nM	O=c1ccc2cnc(Nc3ccc(N4CCNCC4)cn3)nc2n1C1CCCC1 [Example 59, 8-cyclopentyl-2-(5-piperazin-1-yl-pyridin-2-ylamino)-8H-pyrido[2,3-d]pyrimidin-7-one]
278 to 280 °C (dec.)	> 5000 nM	135 nM		Cc1c(Br)c(=O)n(C2CCCC2)c2nc(Nc3ccc(N4CCN(C)CC4)cn3)ncc12 [Example 70, 6-Bromo-8-cyclopentyl-5-methyl-2-[5-(4-methyl-piperazin-1-yl)-pyridin-2-ylamino]-8H-pyrido[2,3-d]pyrimidin-7-one]
> 300 °C				O=c1ccc2cnc(Nc3ccc(N4CCNCC4)cn3)nc2n1C1CC1 (as salt: hydrochloride) [Example 64, 8-cyclopropyl-2-(5-piperazin-1-yl-pyridin-2-ylamino)-8H-pyrido[2,3-d]pyrimidin-7-one]
		763 nM	> 5000 nM	Cc1c(Br)c(=O)n(C2CCCC2)c2nc(Nc3cccc(N)n3)ncc12 [Example 66, 2-(6-amino-pyridin-2-ylamino)-6-bromo-8-cyclopentyl-5-methyl-8H-pyrido[2,3-d]pyrimidin-7-one]
		545 nM	> 5000 nM	CCOCc1cc2cnc(Nc3ccc(N4CCCCC4)cn3)nc2n(C2CCCC2)c1=O [Example 124, 8-Cyclopentyl-6-ethoxymethyl-2-(3,4,5,6-tetrahydro-2H-[1,3]bipyridinyl-6′-ylamino)-8H-pyrido[2,3-d]pyrimidin-7-one]
	> 5000 nM	18 nM	> 5000 nM	CCOCc1cc2cnc(Nc3ccc(N4CCOCC4)cn3)nc2n(C2CCCC2)c1=O [Example 125, 8-Cyclopentyl-6-ethoxymethyl-2-(5-morpholin-4-yl-pyridin-2-ylamino)-8H-pyrido[2,3-d]pyrimidin-7-one]
	1380 nM	13 nM	835 nM	O=c1ccc2cnc(Nc3ccc(N4CCNCC4)cn3)nc2n1C1CCCCC1 [Example 61, 8-cyclohexyl-2-(5-piperazin-1-yl-pyridin-2-ylamino)-8H-pyrido[2,3-d]pyrimidin-7-one]
	> 5000 nM	14 nM		CC(=O)c1c(C)c2cnc(Nc3ccc(N4CCC(N)C4)cn3)nc2n(C2CCCC2)c1=O (centres unmarked) [Example 74, 6-Acetyl-2-[5-(3-amino-pyrrolidin-1-yl)-pyridin-2-ylamino]-8-cyclopentyl-5-methyl-8H-pyrido[2,3-d]pyrimidin-7-one]
213 to 215 °C				O=c1ccc2cnc(Nc3ccc(N4CCNCC4)cn3)nc2n1C1CCCC1 (as salt: hydrochloride) [Example 59, 8-cyclopentyl-2-(5-piperazin-1-yl-pyridin-2-ylamino)-8H-pyrido[2,3-d]pyrimidin-7-one]
	> 5000 nM	37 nM		CC(=O)c1c(C)c2cnc(Nc3ccc(N4CC(C)NC(C)C4)cn3)nc2n(C2CCCC2)c1=O (centres unmarked) [Example 95, 6-Acetyl-8-cyclopentyl-2-[5-(3,5-dimethyl-piperazin-1-yl)-pyridin-2-ylamino]-5-methyl-8H-pyrido[2,3-d]pyrimidin-7-one]
